Measured values: patent publication US4556735A, “Spergualin-related compounds having a phenylene group as well as a process for producing the same” (Zaidan Hojin Biseibutsu Kagaku Kenkyukai, priority 1984, dated 1985)
Structures can show the parent of a compound that is named as a salt.

Key:
mouse leukemia L1210 [1] = experiment: Life extending effect against mouse leukemia L1210; type: in vivo; settings: 9 consecutive days, >125 considered effective
Description: Leukemia cells L1210 (1×10^5 cells/0.2 ml) were inoculated in the intraperitoneal cavity of CDF1 -SLC female mice (6 mice per group). Two compounds of the present invention were each diluted with physiological saline in various concentrations, and starting on the day following the transplantation, each dilution was administered to the mice for 9 consecutive days in a volume of 0.1 ml 10 g (body weight).
30 Days after the inoculation, the mean survival time (day) for each treated group was calculated, and divided by the mean survival time of the control group, and multiplied by 100 to obtain the percent life prolongation (T/C). T/C values greater than 125 are considered to be effective.

rats = experiment: Toxicity in rats (decrease rate of body weight); type: in vivo, rat; settings: intraperitoneal, once a day for 10 days, 6.25 mg/ml in 0.2 ml/100 g
Description: The compound No. 1 was dissolved in physiological saline (the concentration of the compound No. 1: 6.25 mg/ml). The obtained solution was administered intraperitoneally to rats once a day for 10 consecutive days in a volume of 0.2 ml/100 g (body weight).
Decrease rate of body weight of rats was determined as follows: [formula]

[2] = Stability of the compounds in aqueous solution (percent residue by high pressure liquid chromatography); type: physicochemical; settings: 0.5 (w/w) % in water, 40°±1° C.
Description: Each of the compounds of the present invention was dissolved in water to give a concentration of 0.5 (w/w) %. The aqueous solution was held at 40°±1° C. and samples were taken at given intervals. They were subjected to high pressure liquid chromatography and the percent residue was calculated for each sample by measuring the peak area ratio.
The percent residue for the compounds of the present invention after the lapse of a given period is shown in Table 2, with the value for the start of the experiment being taken as 100%.

[3] = system: mouse leukemia L1210 cells; experiment: Inhibition of in vitro growth of mouse leukemia L1210 cells; type: cell-based; settings: 48 hours at 37° C., 5% CO2
Description: Leukemia L1210 cells (1×10^5 /0.2 ml) were transplanted in the intraperitoneal cavity of DBA/2 strain female mice. Four days later, a sample of the abdominal ascites was taken and centrifuged to obtain L1210 cells. These cells were suspended in an RPMI 1640 medium supplemented with fetal bovine serum and 2-mercaptoethanol to have a final concentration of 5×10^4 cells/0.9 ml.
Each of the compounds of the present invention was dissolved in the medium shown above.
A portion (0.9 ml) of the L1210 cell suspension was mixed with 0.1 ml of the test solution ranging from 0.62 to 1000 μg/ml, and the mixture was incubated in a 5% CO2 atmosphere for 48 hours at 37° C. The cell count was determined both before and after the incubation, and the concentration to inhibit the growth of L1210 cells by 50% of the control (IC50) was determined.

[4] = prior art statement; cited from earlier work
[5] = system: Gram-positive microorganisms; settings: cited from earlier work
mouse leukemia L1210 [6] = settings: cited from earlier work
Sarcoma 180 = settings: cited from earlier work
Ehrlich carcinoma = settings: cited from earlier work
leukemia EL-4 = settings: cited from earlier work

Percent residue in aqueous solution ([2]; Time 0 (taken as 100%)) [%] | Percent residue in aqueous solution ([2]; Time 12 (time unit not given)) [%] | Percent residue in aqueous solution ([2]; Time 24 (time unit not given)) [%] | Percent residue in aqueous solution ([2]; Time 48 (time unit not given)) [%] | Percent residue in aqueous solution ([2]; Time 72 (time unit not given)) [%] | Percent residue in aqueous solution ([2]; Time 120 (time unit not given)) [%] | Percent residue in aqueous solution ([2]; Time 168 (time unit not given)) [%] | IC50 [3] [µg/mL] | SMILES | also measured
100 | 99.6 | 99.5 | 99.8 | 99.6 | 99.6 | 99.8 | – | N=C(N)NCc1ccc(CCC(=O)N[C@@H](CO)C(=O)NCCCCNCCCN)cc1 [Compound 3, 10-{N-[3-(4-GMP)Propanoyl]-L-seryl}-1,5,10-TAD trihydrochloride] | –
100 | 99.9 | 99.6 | 99.6 | 99.9 | 99.6 | 99.8 | – | N=C(N)NCc1cccc(CCC(=O)N[C@@H](CO)C(=O)NCCCCNCCCN)c1 [Compound 5, 10-{N-[3-(3-GMP)Propanoyl]-L-seryl}-1,5,10-TAD trihydrochloride] | –
100 | 99.7 | 99.9 | 99.5 | 99.8 | 99.7 | 99.8 | 0.97 | N=C(N)NCc1ccccc1CCCCC(=O)N[C@@H](CO)C(=O)NCCCCNCCCN [Compound 8, 10-{N-[5-(2-GMP)Pentanoyl]-L-ceryl}-1,5,10-TAD trihydrochloride] | –
100 | 99.8 | 99.8 | 99.7 | 100 | 99.5 | 99.6 | – | N=C(N)NCc1ccc(CCC(=O)N[C@@H](CO)C(=O)NCCCCNCCCN)c(Cl)c1 [Compound 9, 10-{N-[3-(2-Chloro-4-GMP)propanoyl]-L-seryl}-1,5,10-TAD trihydrochloride] | –

Continued, molecule first:

SMILES | Percent residue in aqueous solution ([2]; Time 0 (taken as 100%)) [%] | Percent residue in aqueous solution ([2]; Time 12 (time unit not given)) [%] | Percent residue in aqueous solution ([2]; Time 24 (time unit not given)) [%] | Percent residue in aqueous solution ([2]; Time 48 (time unit not given)) [%] | Percent residue in aqueous solution ([2]; Time 72 (time unit not given)) [%] | Percent residue in aqueous solution ([2]; Time 120 (time unit not given)) [%] | Percent residue in aqueous solution ([2]; Time 168 (time unit not given)) [%] | IC50 [3] [µg/mL] | also measured
N=C(N)Nc1ccc(CCCC(=O)N[C@@H](CO)C(=O)NCCCCNCCCN)cc1 [Compound 1, 10-{N-[4-(4-GP)Butanoyl]-L-seryl}-1,5,10-TAD trihydrochloride] | 100 | 99.8 | 99.6 | 99.8 | 99.5 | 99.6 | 99.5 | – | T/C (percent life prolongation) (mouse leukemia L1210 [1]; 0.39 mg/kg/day): 149%; T/C (percent life prolongation) (mouse leukemia L1210 [1]; 0.78 mg/kg/day): 406%; T/C (percent life prolongation) (mouse leukemia L1210 [1]; 1.56 mg/kg/day): 435%; T/C (percent life prolongation) (mouse leukemia L1210 [1]; 3.13 mg/kg/day): 435%; T/C (percent life prolongation) (mouse leukemia L1210 [1]; 6.25 mg/kg/day): 435%; T/C (percent life prolongation) (mouse leukemia L1210 [1]; 12.50 mg/kg/day): 420%; T/C (percent life prolongation) (mouse leukemia L1210 [1]; 25.00 mg/kg/day): 178%; Decrease rate of body weight of rats (rats): very small; toxicity (rats; rats): a little
N=C(N)Nc1ccc(CCCC(=O)NCC(=O)NCCCCNCCCN)cc1 [Compound 2, 10-{N-[4-(4-GP)Butanoyl]glycyl}-1,5,10-TAD trihydrochloride] | 100 | 99.7 | 99.9 | 99.8 | 99.9 | 100 | 99.8 | – | T/C (percent life prolongation) (mouse leukemia L1210 [1]; 0.39 mg/kg/day): 109%; T/C (percent life prolongation) (mouse leukemia L1210 [1]; 0.78 mg/kg/day): 145%; T/C (percent life prolongation) (mouse leukemia L1210 [1]; 1.56 mg/kg/day): 435%; T/C (percent life prolongation) (mouse leukemia L1210 [1]; 3.13 mg/kg/day): 435%; T/C (percent life prolongation) (mouse leukemia L1210 [1]; 6.25 mg/kg/day): 435%; T/C (percent life prolongation) (mouse leukemia L1210 [1]; 12.50 mg/kg/day): 435%; T/C (percent life prolongation) (mouse leukemia L1210 [1]; 25.00 mg/kg/day): 435%; T/C (percent life prolongation) (mouse leukemia L1210 [1]; 50.00 mg/kg/day): 15%
N=C(N)NCCCc1ccc(C(=O)N[C@@H](CO)C(=O)NCCCCNCCCN)cc1 [Compound 4, 10-{N-[4-(3-GPro)Benzoyl]-L-seryl}-1,5,10-TAD trihydrochloride] | 100 | 99.6 | 99.9 | 99.6 | 99.7 | 99.9 | 99.5 | 1.1 | –
N=C(N)Nc1ccc(CCCCC(=O)N[C@@H](CO)C(=O)NCCCCNCCCN)cc1 [Compound 6, 10-{N-[5-(4-GP)Pentanoyl]-L-seryl}-1,5,10-TAD trihydrochloride] | 100 | 99.5 | 99.8 | 99.7 | 99.7 | 99.5 | 100 | – | –
N=C(N)NCCCc1ccc(C(=O)NCC(=O)NCCCCNCCCN)cc1 [Compound 7, 10-{N-[4-(3-GPro)Benzoyl]glycyl}-1,5,10-TAD trihydrochloride] | 100 | 99.6 | 99.6 | 100 | 100 | 99.9 | 99.7 | 0.92 | –
N=C(N)NCCCCC(O)CC(=O)NC(O)C(=O)NCCCCNCCCN (stereo not drawn) [Spergualin] | 100 | – | – | – | – | – | – | – | stability in an aqueous solution [4]: unstable; inhibit the growth of Gram-positive microorganisms [5]: ability to inhibit the growth; antineoplastic effects (mouse leukemia L1210 [6]): significant antineoplastic effects; antineoplastic effects (Sarcoma 180): significant antineoplastic effects; antineoplastic effects (Ehrlich carcinoma): significant antineoplastic effects; antineoplastic effects (leukemia EL-4): significant antineoplastic effects
